Source: ChEMBL document CHEMBL5653631, “A Potent and Selective ULK1 Inhibitor Suppresses Autophagy and Sensitizes Cancer Cells to Nutrient Stress” (iScience, 2018)

Tests used:
[1] = target: Serine/threonine-protein kinase Nek7 (Homo sapiens) (UniProt Q8TDX7); assay: Inhibition of human recombinant NEK7 at 40 nM in presence of ATP by radiometric assay relative to control
[2] = target: Serine/threonine-protein kinase pim-3 (Homo sapiens) (UniProt Q86V86); assay: Inhibition of human recombinant PIM3 at 40 nM in presence of ATP by radiometric assay relative to control
[3] = target: Serine/threonine-protein kinase D2 (Homo sapiens) (UniProt Q9BZL6); assay: Inhibition of human recombinant PKD2 at 40 nM in presence of ATP by radiometric assay relative to control
Sequence of Serine/threonine-protein kinase D2 (Homo sapiens) (Q9BZL6 whole entry, looked up): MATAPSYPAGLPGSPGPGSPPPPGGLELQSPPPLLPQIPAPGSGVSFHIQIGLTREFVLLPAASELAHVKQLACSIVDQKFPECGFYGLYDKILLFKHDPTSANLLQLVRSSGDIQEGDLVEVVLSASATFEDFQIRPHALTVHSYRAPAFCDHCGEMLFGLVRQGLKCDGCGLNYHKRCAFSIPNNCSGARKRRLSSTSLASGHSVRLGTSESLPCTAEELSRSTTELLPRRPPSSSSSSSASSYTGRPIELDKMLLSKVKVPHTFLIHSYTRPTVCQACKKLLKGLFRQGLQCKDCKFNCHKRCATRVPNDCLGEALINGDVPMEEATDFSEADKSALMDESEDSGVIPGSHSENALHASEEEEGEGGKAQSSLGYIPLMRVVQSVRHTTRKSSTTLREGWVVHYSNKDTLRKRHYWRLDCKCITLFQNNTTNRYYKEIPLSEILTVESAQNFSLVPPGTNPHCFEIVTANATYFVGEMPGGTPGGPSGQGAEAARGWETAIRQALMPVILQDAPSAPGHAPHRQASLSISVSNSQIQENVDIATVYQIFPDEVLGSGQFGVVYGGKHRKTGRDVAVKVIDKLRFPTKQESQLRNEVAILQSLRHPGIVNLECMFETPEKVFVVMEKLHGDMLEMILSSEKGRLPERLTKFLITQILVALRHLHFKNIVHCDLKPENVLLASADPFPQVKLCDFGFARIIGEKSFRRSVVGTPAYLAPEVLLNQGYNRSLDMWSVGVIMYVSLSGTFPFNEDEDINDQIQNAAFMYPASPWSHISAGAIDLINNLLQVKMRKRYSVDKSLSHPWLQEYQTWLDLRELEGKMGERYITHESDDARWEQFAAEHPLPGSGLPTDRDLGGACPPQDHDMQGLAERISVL

[4] = target: SRSF protein kinase 2 (Homo sapiens) (UniProt P78362); assay: Inhibition of human recombinant SRPK2 at 15 nM in presence of ATP by radiometric assay relative to control
Sequence of SRSF protein kinase 2 (Homo sapiens) (P78362 whole entry, looked up): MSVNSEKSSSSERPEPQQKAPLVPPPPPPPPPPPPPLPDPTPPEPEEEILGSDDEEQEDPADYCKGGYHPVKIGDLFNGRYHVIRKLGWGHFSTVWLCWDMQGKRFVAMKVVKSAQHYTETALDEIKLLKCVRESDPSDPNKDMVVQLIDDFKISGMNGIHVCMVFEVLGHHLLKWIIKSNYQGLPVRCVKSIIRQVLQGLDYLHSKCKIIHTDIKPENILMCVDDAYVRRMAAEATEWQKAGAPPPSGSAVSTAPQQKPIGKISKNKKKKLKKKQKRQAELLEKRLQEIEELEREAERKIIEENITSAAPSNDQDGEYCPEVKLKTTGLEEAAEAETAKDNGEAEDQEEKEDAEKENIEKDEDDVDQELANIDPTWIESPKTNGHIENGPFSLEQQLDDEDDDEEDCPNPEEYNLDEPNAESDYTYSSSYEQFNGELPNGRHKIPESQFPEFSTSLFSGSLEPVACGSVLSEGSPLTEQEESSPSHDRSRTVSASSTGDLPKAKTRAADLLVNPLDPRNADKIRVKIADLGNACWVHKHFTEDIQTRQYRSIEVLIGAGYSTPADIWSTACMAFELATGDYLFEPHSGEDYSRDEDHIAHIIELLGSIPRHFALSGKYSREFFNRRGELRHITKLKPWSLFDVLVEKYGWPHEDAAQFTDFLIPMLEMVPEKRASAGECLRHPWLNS

[5] = target: Calcium/calmodulin-dependent protein kinase type 1D (Homo sapiens) (UniProt Q8IU85); assay: Inhibition of human recombinant CaMK1d at 15 nM related to control ULK1
Sequence of Calcium/calmodulin-dependent protein kinase type 1D (Homo sapiens) (Q8IU85 whole entry, looked up): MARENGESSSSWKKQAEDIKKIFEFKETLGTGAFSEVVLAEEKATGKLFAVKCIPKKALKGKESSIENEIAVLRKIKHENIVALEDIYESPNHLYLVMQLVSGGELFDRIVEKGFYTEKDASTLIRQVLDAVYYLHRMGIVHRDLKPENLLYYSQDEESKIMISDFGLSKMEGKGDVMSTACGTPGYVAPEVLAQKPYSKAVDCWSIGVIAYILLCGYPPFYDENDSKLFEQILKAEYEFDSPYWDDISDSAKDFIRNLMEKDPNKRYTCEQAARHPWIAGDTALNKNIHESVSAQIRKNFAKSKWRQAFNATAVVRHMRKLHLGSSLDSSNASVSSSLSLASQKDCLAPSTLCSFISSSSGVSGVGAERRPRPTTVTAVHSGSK

[6] = target: Tyrosine-protein kinase Fer (Homo sapiens) (UniProt P16591); assay: Inhibition of human recombinant FER at 15 nM related to control ULK1
Sequence of Tyrosine-protein kinase Fer (Homo sapiens) (P16591 whole entry, looked up): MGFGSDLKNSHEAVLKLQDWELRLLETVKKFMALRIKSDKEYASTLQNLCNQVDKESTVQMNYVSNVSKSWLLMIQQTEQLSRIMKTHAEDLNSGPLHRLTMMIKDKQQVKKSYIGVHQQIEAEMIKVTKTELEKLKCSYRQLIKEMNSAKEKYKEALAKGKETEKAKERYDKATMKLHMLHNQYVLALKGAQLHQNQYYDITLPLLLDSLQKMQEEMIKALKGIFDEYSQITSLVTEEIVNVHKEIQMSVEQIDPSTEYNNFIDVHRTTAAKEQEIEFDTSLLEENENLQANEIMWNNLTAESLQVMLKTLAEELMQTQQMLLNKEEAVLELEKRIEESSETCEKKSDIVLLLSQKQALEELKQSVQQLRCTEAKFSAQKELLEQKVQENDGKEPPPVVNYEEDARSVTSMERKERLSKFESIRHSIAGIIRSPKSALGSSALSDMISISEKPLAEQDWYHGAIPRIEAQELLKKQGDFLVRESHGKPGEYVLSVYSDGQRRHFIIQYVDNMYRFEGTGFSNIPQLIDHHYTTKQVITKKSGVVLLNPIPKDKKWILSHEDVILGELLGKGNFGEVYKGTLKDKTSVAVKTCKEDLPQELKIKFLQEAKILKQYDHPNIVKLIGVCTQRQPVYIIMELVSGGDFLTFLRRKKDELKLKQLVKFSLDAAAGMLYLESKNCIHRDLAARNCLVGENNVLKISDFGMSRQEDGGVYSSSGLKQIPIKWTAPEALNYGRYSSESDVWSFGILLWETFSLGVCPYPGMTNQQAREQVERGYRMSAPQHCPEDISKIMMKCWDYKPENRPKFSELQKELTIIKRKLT

[7] = target: Serine/threonine-protein kinase VRK2 (Homo sapiens) (UniProt Q86Y07); assay: Inhibition of human recombinant VRK2 at 15 nM related to control ULK1
Sequence of Serine/threonine-protein kinase VRK2 (Homo sapiens) (Q86Y07 whole entry): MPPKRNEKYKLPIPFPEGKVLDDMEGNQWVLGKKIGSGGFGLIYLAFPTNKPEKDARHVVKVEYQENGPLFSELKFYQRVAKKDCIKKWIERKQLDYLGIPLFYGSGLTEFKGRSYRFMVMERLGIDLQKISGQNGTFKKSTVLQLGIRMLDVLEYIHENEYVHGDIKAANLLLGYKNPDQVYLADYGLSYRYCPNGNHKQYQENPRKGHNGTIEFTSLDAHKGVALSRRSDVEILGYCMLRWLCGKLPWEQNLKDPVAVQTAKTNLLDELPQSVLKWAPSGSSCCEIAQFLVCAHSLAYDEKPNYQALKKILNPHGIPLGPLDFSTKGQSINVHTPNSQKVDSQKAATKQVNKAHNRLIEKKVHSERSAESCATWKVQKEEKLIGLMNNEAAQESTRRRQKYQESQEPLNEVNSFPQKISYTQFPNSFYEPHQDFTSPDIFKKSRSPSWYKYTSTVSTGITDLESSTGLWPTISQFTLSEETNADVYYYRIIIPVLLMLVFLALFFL

[8] = target: T1, Homeodomain-interacting protein kinase 4 (Homo sapiens) (UniProt Q8NE63); assay: Inhibition of human recombinant HIPK4 at 500 nM in presence of ATP by radiometric assay relative to control
T1 sequence (whole entry): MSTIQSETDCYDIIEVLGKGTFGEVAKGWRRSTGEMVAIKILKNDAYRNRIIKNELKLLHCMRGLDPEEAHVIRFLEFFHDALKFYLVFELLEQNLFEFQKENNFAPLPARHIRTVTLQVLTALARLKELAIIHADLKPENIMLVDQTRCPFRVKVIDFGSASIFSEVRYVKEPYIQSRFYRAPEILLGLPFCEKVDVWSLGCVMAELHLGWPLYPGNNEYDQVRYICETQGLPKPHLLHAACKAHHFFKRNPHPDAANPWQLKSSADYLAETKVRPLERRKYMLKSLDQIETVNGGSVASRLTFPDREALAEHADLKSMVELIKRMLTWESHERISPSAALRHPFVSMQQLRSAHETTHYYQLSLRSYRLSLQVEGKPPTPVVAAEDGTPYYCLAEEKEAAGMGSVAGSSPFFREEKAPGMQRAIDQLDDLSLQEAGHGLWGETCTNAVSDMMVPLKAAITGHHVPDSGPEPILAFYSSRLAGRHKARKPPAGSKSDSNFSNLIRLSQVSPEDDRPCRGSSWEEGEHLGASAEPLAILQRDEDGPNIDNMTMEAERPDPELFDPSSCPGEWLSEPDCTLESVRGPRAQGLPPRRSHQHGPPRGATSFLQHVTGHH

[9] = target: Serine/threonine-protein kinase B-raf (Homo sapiens) (UniProt P15056); assay: Inhibition of human recombinant BRAF at 500 nM related to control ULK1
Sequence of Serine/threonine-protein kinase B-raf (Homo sapiens) (P15056 whole entry): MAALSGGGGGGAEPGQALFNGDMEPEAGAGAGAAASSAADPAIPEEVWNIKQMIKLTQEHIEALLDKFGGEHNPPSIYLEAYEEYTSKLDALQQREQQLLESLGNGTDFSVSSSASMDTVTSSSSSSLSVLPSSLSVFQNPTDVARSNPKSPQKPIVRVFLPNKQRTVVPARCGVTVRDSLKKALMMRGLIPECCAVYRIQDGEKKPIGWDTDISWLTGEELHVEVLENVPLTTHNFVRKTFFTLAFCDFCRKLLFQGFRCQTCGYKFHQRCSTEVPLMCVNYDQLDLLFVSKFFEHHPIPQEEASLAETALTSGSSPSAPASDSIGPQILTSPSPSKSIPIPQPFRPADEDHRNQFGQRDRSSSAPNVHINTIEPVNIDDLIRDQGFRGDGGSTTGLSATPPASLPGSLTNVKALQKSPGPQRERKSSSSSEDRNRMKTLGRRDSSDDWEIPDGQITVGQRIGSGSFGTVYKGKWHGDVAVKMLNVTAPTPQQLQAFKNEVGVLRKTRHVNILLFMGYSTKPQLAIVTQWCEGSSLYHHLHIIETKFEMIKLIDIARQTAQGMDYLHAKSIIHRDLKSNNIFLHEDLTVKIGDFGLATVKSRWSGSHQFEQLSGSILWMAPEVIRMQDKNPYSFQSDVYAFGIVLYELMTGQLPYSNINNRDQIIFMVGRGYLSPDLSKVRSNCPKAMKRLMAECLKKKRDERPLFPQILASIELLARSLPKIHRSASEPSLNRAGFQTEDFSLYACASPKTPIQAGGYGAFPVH

[10] = target: T2, Muscle, skeletal receptor tyrosine-protein kinase (Homo sapiens) (UniProt O15146); assay: Inhibition of human recombinant MUSK at 500 nM related to control ULK1
T2 sequence (whole entry): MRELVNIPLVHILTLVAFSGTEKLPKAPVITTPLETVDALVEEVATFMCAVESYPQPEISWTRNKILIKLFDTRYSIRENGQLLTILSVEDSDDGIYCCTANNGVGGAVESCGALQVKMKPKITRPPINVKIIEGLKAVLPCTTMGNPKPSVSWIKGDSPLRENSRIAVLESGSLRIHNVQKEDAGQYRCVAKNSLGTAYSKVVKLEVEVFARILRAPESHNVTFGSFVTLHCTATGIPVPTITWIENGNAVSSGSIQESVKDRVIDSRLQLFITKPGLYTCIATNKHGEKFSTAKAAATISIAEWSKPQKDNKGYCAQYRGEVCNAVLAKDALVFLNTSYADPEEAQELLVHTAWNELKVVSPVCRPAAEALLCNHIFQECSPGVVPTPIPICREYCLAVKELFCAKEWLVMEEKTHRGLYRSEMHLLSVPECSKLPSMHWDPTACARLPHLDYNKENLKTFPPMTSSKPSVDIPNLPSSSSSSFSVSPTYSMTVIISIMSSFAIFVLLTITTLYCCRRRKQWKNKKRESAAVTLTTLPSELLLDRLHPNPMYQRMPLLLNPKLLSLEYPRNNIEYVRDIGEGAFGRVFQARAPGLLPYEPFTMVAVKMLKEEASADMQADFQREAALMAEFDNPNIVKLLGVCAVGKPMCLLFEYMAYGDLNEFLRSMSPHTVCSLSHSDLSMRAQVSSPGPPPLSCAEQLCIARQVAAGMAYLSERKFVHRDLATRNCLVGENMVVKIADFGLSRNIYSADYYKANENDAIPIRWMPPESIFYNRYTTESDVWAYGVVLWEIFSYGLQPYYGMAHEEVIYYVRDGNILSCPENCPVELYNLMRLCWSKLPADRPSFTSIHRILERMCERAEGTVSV

[11] = target: T3, Serine/threonine-protein kinase tousled-like 1 (Homo sapiens) (UniProt Q9UKI8); assay: Inhibition of human recombinant TLK1 at 500 nM related to control ULK1
T3 sequence (whole entry): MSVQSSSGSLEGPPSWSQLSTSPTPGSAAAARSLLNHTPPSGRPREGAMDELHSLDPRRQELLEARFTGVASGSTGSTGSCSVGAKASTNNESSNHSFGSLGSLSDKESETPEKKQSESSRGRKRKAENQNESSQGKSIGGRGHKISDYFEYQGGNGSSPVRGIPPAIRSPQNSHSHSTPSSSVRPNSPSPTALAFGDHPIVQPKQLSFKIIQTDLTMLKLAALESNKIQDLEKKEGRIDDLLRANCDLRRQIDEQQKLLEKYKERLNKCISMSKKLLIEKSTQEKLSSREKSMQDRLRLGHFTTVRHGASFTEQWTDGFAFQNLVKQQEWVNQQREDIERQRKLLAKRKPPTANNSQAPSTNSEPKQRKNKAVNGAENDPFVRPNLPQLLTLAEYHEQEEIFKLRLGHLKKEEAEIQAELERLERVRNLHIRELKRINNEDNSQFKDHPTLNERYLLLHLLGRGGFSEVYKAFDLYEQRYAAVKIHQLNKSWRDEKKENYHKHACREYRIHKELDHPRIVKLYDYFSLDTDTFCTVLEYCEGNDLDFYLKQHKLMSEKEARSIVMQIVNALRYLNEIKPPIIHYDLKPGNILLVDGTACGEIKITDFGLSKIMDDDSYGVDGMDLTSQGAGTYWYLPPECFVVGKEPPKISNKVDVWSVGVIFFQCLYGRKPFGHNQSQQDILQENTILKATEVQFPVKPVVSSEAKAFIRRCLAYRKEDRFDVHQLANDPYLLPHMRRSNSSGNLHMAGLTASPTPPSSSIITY

Sequence of Serine/threonine-protein kinase Nek7 (Homo sapiens) (Q8TDX7 whole entry, looked up): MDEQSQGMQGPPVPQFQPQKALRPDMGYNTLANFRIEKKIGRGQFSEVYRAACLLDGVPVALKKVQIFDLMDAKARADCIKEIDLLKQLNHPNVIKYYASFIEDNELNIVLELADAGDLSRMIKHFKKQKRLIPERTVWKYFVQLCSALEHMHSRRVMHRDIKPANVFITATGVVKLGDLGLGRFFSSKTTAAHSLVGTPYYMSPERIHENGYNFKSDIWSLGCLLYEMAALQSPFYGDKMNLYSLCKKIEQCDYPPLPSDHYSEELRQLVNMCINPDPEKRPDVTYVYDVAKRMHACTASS

Question: `O=C(N[C@@H](C1CC1)C(F)(F)F)c1cc(-c2cnn3cc(-c4ccc(F)cc4)cnc23)cs1` was tested. Which inhibition [1] did it give?
Answer: 0%

Question: What about the inhibition [2] of the same compound?
Answer: 0%

Question: And the inhibition [3]?
Answer: 6%

Question: What does the source list for `CC(C)[C@H](NC(=O)c1cc(-c2cnn3cc(-c4ccc(OCCN5CCCCC5)cc4)cnc23)cs1)C(F)(F)F`?
Answer: inhibition [4]: 0%; fold change (FC) [5]: 0; fold change (FC) [6]: 0; fold change (FC) [7]: 0

Question: How did the inhibition [8] turn out when `CNC(=O)c1ccccc1Oc1nc(Nc2cc(OC)c(OC)c(OC)c2)ncc1Br` was run?
Answer: 9%

Question: What about the fold change (FC) [9] of the same compound?
Answer: 0.11

Question: And the fold change (FC) [10]?
Answer: 0.46

Question: What about the fold change (FC) [11] of the same compound?
Answer: 0
